Measured values: ChEMBL document CHEMBL1140679, “The identification of potent, selective, and bioavailable cathepsin S inhibitors” (Bioorg Med Chem Lett, 2007)

How the values were obtained:
Cathepsin S [1] = molecular target: Cathepsin S (Homo sapiens, UniProt P25774); test: Inhibition of human cathepsin S
Cathepsin K [2] = molecular target: T1, Cathepsin K (Homo sapiens, UniProt P43235); test: Inhibition of human cathepsin K
T1 sequence (P43235 whole entry): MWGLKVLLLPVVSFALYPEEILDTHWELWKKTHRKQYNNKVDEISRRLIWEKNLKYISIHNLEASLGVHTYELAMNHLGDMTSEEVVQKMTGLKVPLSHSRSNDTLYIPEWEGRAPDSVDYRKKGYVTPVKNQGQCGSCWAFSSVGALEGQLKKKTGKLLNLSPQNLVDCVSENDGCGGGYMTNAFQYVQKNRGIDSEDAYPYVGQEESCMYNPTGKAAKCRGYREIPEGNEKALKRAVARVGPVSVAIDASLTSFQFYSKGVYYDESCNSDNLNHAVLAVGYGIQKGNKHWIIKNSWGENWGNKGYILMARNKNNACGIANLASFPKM

Cathepsin B [3] = molecular target: Cathepsin B (Homo sapiens, UniProt P07858); test: Inhibition of human cathepsin B
Cathepsin S [4] = molecular target: Cathepsin S (Mus musculus, UniProt O70370); test: Inhibition of mouse recombinant cathepsin S
Chain of Cathepsin S (Mus musculus, UniProt O70370) (O70370 whole entry): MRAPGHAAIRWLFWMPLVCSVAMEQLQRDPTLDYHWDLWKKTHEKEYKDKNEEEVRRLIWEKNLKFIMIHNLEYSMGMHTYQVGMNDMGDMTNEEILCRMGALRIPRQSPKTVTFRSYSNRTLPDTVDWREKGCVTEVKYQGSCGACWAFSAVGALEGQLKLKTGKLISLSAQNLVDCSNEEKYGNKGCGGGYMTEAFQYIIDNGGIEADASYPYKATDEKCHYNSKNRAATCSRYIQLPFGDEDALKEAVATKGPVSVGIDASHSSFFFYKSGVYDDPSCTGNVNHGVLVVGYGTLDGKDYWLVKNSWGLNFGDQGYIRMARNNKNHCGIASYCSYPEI

Cathepsin K [5] = molecular target: T2, Cathepsin K (Mus musculus, UniProt P55097); test: Inhibition of mouse recombinant cathepsin K
T2 sequence (P55097 whole entry): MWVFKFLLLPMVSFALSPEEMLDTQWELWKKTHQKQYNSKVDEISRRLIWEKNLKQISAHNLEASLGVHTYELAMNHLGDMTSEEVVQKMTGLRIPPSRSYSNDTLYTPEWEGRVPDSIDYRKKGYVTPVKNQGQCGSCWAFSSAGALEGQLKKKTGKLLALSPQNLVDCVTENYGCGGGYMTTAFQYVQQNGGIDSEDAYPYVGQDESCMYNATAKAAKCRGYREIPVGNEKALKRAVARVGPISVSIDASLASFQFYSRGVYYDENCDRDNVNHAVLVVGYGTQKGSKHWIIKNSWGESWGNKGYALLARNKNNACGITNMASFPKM

Cathepsin B [6] = molecular target: Cathepsin B (Mus musculus, UniProt P10605); test: Inhibition of mouse recombinant cathepsin B
Chain of Cathepsin B (Mus musculus, UniProt P10605) (P10605 whole entry): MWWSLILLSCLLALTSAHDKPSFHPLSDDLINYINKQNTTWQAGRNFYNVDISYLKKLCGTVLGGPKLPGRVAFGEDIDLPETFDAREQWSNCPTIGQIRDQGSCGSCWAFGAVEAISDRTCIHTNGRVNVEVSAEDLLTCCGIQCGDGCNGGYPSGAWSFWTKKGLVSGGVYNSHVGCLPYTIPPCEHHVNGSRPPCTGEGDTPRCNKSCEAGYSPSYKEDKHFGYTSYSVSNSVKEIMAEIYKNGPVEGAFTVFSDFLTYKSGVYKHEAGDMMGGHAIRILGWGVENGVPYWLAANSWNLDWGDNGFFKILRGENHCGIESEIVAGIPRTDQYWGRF

Cathepsin S [7] = molecular target: Cathepsin S (Rattus norvegicus, UniProt Q02765); test: Inhibition of rat spleen cathepsin S; type: tissue-based
Chain of Cathepsin S (Rattus norvegicus, UniProt Q02765) (Q02765 whole entry): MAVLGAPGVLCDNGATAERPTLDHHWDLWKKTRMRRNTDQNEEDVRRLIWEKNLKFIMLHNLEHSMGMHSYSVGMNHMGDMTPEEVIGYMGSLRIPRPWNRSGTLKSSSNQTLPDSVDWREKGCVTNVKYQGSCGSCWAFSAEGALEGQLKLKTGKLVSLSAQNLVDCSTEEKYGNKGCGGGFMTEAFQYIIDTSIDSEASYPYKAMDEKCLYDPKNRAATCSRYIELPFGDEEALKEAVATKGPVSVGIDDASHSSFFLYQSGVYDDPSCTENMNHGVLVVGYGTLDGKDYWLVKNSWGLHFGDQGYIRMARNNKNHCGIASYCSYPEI

Cathepsin B [8] = molecular target: Cathepsin B (Rattus norvegicus, UniProt P00787); test: Inhibition of rat liver lysosomal cathepsin B
Chain of Cathepsin B (Rattus norvegicus, UniProt P00787) (P00787 whole entry): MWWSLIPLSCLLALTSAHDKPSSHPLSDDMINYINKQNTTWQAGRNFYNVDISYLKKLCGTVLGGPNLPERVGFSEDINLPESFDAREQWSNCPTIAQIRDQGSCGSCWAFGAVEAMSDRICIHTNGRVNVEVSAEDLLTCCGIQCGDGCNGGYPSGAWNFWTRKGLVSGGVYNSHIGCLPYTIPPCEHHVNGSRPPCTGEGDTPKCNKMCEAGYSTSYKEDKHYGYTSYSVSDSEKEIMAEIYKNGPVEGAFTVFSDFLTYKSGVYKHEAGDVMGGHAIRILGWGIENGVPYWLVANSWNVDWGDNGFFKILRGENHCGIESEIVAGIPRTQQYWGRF

Procathepsin L [9] = molecular target: T3, Procathepsin L (Rattus norvegicus, UniProt P07154); test: Inhibition of rat liver lysosomal cathepsin L
T3 sequence (P07154 whole entry): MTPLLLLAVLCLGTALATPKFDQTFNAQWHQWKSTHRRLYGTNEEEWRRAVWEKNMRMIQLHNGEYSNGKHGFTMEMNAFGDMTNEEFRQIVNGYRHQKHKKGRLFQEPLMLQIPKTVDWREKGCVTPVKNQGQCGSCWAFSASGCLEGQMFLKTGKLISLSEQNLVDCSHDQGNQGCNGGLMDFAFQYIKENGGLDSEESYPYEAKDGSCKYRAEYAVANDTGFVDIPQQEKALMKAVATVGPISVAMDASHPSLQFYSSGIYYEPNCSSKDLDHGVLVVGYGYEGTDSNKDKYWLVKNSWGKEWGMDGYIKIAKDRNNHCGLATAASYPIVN

[10] = Inhibition of antigen presentation in mouse B cells; type: functional, cell-based
Procathepsin L [11] = molecular target: Procathepsin L (Homo sapiens, UniProt P07711); test: Inhibition of human cathepsin L
Chain of Procathepsin L (Homo sapiens, UniProt P07711) (P07711 whole entry): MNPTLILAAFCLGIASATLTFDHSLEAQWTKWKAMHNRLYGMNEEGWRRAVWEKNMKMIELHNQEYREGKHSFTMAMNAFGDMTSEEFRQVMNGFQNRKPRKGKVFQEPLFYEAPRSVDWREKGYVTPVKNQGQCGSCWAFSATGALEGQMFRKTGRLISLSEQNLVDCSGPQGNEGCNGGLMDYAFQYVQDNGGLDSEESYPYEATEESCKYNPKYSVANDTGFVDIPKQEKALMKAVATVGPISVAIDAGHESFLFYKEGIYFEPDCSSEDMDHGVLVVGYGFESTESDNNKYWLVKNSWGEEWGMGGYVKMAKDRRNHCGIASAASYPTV

Procathepsin L [12] = molecular target: T4, Procathepsin L (Mus musculus, UniProt P06797); test: Inhibition of mouse recombinant cathepsin L
T4 sequence (P06797 whole entry): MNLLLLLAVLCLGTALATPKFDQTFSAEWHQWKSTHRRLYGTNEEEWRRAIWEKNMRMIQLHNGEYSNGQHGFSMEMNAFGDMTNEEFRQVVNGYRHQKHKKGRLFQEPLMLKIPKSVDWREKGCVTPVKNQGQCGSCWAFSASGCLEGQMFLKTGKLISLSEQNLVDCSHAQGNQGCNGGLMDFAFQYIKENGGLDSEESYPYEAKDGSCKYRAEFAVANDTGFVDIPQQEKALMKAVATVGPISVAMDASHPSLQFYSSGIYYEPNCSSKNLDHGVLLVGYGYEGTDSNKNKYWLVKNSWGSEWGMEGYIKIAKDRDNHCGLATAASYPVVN

[13] = Cmax in po dosed Sprague-Dawley rat administered in 1:1 inwitor/tween 80 solution; type: ADME, organism-based; parameters: route oral; conditions: in vivo
Rattus norvegicus = test: Half life in po dosed Sprague-Dawley rat administered in 1:1 inwitor/tween 80 solution; type: ADME, organism-based; conditions: in vivo
[14] = Bioavailability in po dosed Sprague-Dawley rat administered in 1:1 inwitor/tween 80 solution; type: ADME, organism-based; conditions: in vivo

Chain of Cathepsin S (Homo sapiens, UniProt P25774) (P25774 whole entry): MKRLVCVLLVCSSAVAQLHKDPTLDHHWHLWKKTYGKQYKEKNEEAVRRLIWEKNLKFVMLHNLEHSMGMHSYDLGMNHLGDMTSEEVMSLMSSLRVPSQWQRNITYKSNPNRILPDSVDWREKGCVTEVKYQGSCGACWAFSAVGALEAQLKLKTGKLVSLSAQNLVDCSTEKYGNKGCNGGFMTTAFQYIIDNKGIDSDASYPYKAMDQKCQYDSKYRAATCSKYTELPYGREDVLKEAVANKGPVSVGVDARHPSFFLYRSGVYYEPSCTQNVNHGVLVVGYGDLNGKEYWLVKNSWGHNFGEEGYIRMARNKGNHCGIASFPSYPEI

SMILES	IC50 (Cathepsin S [1]) [µM]	IC50 (Cathepsin K [2]) [µM]	IC50 (Cathepsin B [3]) [µM]	IC50 (Cathepsin S [4]) [µM]	IC50 (Cathepsin K [5]) [µM]	IC50 (Cathepsin B [6]) [µM]	IC50 (Cathepsin S [7]) [µM]	IC50 (Cathepsin B [8]) [µM]	IC50 (Procathepsin L [9]) [µM]	IC50 [10] [µM]	IC50 (Procathepsin L [11]) [µM]	IC50 (Procathepsin L [12]) [µM]	Cmax [13] [nM]	t1/2 (Rattus norvegicus) [h]	bioavailability [14] [%]
CC(C)C[C@@H](NC(=O)N1CCOCC1)C(=O)N[C@@H](/C=C/S(=O)(=O)c1ccccc1)CCc1ccccc1	0.0012	0.0062	4.5	0.0005	0.388	1.28	0.0017	0.735	0.0041	0.0012					
CS(=O)(=O)C[C@H](N[C@@H](c1ccc(-c2ccc(F)cc2)cc1)C(F)(F)F)C(=O)NC1(C#N)CC1	0.01	0.0053	0.17								> 10				
CC(C)C[C@H](N[C@@H](c1ccc(-c2ccc(S(C)(=O)=O)cc2)cc1)C(F)(F)F)C(=O)NC1(C#N)CC1	0.265	0.0003	7.74								0.456				
CSC[C@H](N[C@@H](c1ccc(Br)cc1)C(F)(F)F)C(=O)NC1(C#N)CC1	0.08	0.005	0.417								0.456				
CS(=O)(=O)C[C@H](N[C@@H](c1cccc(F)c1)C(F)(F)F)C(=O)NC1(C#N)CC1	0.0064	0.314	3.85								0.911				

Continued, values first:

IC50 (Cathepsin S [1]) [µM]	IC50 (Cathepsin K [2]) [µM]	IC50 (Cathepsin B [3]) [µM]	IC50 (Cathepsin S [4]) [µM]	IC50 (Cathepsin K [5]) [µM]	IC50 (Cathepsin B [6]) [µM]	IC50 (Cathepsin S [7]) [µM]	IC50 (Cathepsin B [8]) [µM]	IC50 (Procathepsin L [9]) [µM]	IC50 [10] [µM]	IC50 (Procathepsin L [11]) [µM]	IC50 (Procathepsin L [12]) [µM]	Cmax [13] [nM]	t1/2 (Rattus norvegicus) [h]	bioavailability [14] [%]	SMILES
0.0025	0.141	1.98								1.03					CS(=O)(=O)C[C@H](N[C@@H](c1ccccc1)C(F)(F)F)C(=O)NC1(C#N)CC1
0.0006	0.555	0.287								0.068					N#CC1(NC(=O)[C@H](CS(=O)(=O)CC2CC2)N[C@@H](c2ccccc2)C(F)(F)F)CC1
0.0003	0.29	3.45	0.0002	1.32	1.75	0.066	1.81	0.072		0.015	0.039				N#CC1(NC(=O)[C@H](CS(=O)(=O)c2ccc(Br)cc2)N[C@@H](c2ccccc2)C(F)(F)F)CC1
0.0013	0.825	2.97								0.114					N#CC1(NC(=O)[C@H](CS(=O)(=O)c2nc3ccccc3s2)N[C@@H](c2ccccc2)C(F)(F)F)CC1
0.0018	> 10	4.04								> 10					N#CC1(NC(=O)[C@H](CS(=O)(=O)Cc2ccccc2-c2ccccc2)N[C@@H](c2ccc(F)cc2)C(F)(F)F)CC1
0.0004	0.305	7.28								0.022					N#CC1(NC(=O)[C@H](CS(=O)(=O)c2ccc(F)cc2)N[C@@H](c2ccc(F)cc2)C(F)(F)F)CC1
0.0002	0.691	4.81								0.041		250	1.2	35	N#CC1(NC(=O)[C@H](CS(=O)(=O)c2ccc(Cl)c(Cl)c2)N[C@@H](c2ccc(F)cc2)C(F)(F)F)CC1
